From patent US20070274947A1, “Antisense Oligonucleotides Directed to Ribonucleotide Reductase R1 and Uses Thereof in the Treatment of Cancer” (priority 2003, published 2007)
Entries after “also recorded” stand apart in the source; their conditions may differ. Where two headings read alike, the source gives them in different places.

Experiments:
[1] = test system: 28S rRNA, 18S rRNA, thioredoxin mRNA, β-actin mRNA, GAPDH mRNA, thioredoxin reductase mRNA, ribosomal protein S9 mRNA, RNase MRP RNA, RNase P RNA and R2 mRNA; assay: Northern blot of other cellular RNAs in A2058 human melanoma cells (specificity); format: cell-based; conditions: 0.2 μM, 4 hr with Lipofectin
Method: A2058 human melanoma cells, grown to subconfluency (70-80%), were treated with 0.2 μM of phosphorothioate antisense ODNs for 4 hr in the presence of cationic lipid (Lipofectin reagent, final concentration, 5 μg/ml, GIBCO BRL) and Opti-MEM (GIBCO BRL). Cells were washed once with PBS and incubated for 16 hr in α-MEM medium (GIBCO BRL) containing 10% FBS. Total RNA was prepared in TRIzol reagent (GIBCO BRL) and northern blot analysis was performed as previously described (Hurta and Wright, J. Cell. Biochem. 57: 543-56, 1995) with some modifications. RNA prepared from cells treated with lipofectin alone (Control), SEQ ID NO:1 and scrambled control analogue (SEQ ID NO:1 Scr) were subjected to electrophoresis through 1% formaldehyde agarose gels followed by transfer to nylon membrane. The blots were hybridized with ^32P-labeled probes that detect R1 mRNA, 28S rRNA, 18S rRNA, thioredoxin mRNA, […], GAPDH mRNA, thioredoxin reductase mRNA, ribosomal protein S9 mRNA, RNase MRP RNA, RNase P RNA and R2 mRNA.

[2] = monkey, in vivo
[3] = test system: MDA-CDDP-S4 human in vivo-selected Cisplatin-resistant breast adenocarcinoma cells; assay: Cisplatin-resistant breast adenocarcinoma MDA-CDDP-S4 growth in SCID mice
Method: MDA-CDDP-S4 human in vivo-selected Cisplatin-resistant breast adenocarcinoma cells MDA231/CDDPs4) (4×10^6 cells in 100 μl of PBS) were injected into the fat pad (inside of right leg) of 6-7 weeks old female SCID mice. After the size of tumor reached an approximate volume of 100 mm^3, 7-9 days post tumor cell injection, SEQ ID NO:1 was administered by bolus infusion into the tail vein every other day at 10 mg/kg. Control animals received saline alone for the same period. Antitumor effect of SEQ ID NO:1 was further compared to that of Cisplatin or Taxol alone (FIG. 14A) and in combination as indicated in the FIGS. 14B, 14C and 14D. Cisplatin was administered intravenously once a week for three weeks at a dose of 4 mg/kg. Taxol was administered intravenously once a week for three weeks at a dose of 10 mg/kg. Antitumor activities were estimated by the inhibition of tumor volume, which was measured with caliper and each point represents mean tumor volume calculated from 10 animals per experimental group (FIG. 14C). At the end of the study animals were sacrificed, tumor weights taken and mean tumor weights are indicated. […] As expected, treatment with Cisplatin during the same period was ineffective against Cisplatin-resistant tumor.

R1 mRNA = R1 mRNA levels in HT-29 colon tumors in nude mice (Northern blot); format: in vivo, human; conditions: day 16, 10 mg/kg every other day, two independent HT-29 tumors
Method: Effects of SEQ ID NO:1 administration on R1 mRNA levels in HT-29 colon tumors in nude mice were investigated.
For determination of mRNA levels in tumors by Northern Blot, total RNA was prepared from excised tumors using TRIzol reagent (GIBCO BRL). Northern blot analysis was performed as previously described (Hurta and Wright, 1995). RNA was subjected to electrophoresis through 1% formaldehyde agarose gels followed by transfer to nylon membranes. Blots were hybridized in the presence of a R1 fragment (McClarty et al, 1987). Glyceraldehyde-3-phosphate dehydrogenase (GAPDH) mRNA levels were simultaneously probed for RNA loading controls.
The results provide strong evidence that SEQ ID NO:1 is reaching the tumor site in vivo and is acting by an antisense mechanism of action.

[4] = Tissue distribution after continuous infusion in rats; format: in vivo; conditions: rat
[5] = test system: PC-3 human prostatic cancer cells; assay: PC-3 prostate tumor growth in SCID mice; format: in vivo; conditions: 10 mg/kg i.v. every other day, 36 days, vs saline
Method: PC-3 human prostatic cancer cells (1×10^7 cells in 100 μl of PBS) were subcutaneously injected into the right flank of 6-7 week old male SCID mice. After the tumor size reached an approximate volume of 50 mm^3, 14 days post tumor cell injection, SEQ ID NO:1 was administered by bolus infusion into the tail vein every other day at 10 mg/kg. Control animals received saline alone for the same period. Treatments lasted for 36 days thereafter. Antitumor activities were estimated by the inhibition of tumor volume, which was measured with a caliper on six different occasions over 36-day period. Each point represents mean tumor volume calculated from 5 animals per experimental group.

SK-OV-3 (ovary) = assay: Colony forming ability, SK-OV-3; format: cell-based, human; conditions: 0.2 μM antisense oligonucleotide/lipofectin, 4 hours
Method: (§1) The effect of SEQ ID NO:1 on the colony forming ability were evaluated in the following human tumor cell lines:
(§2) Tumor cells were washed in 5 ml of phosphate buffered saline, pH 7.2, prior to 0.2 μM antisense oligonucleotide/lipofectin treatment for 4 hours. The medium was removed and the cells were gently washed with 5 ml of growth medium. The cells were then cultured in growth medium for seven to ten days. Surviving colonies were visualized by methylene blue staining and colonies of 50 or more cells were scored (Choy et al., 1988 and Huang and Wright, 1994). Results are summarized from 4 to 8 trials for each tumor cell line.

human tumors = assay: In vivo primary pharmacology, human tumors in mouse models
[6] = cynomolgus monkey, in vivo
A2058 (melanoma) = assay: Colony forming ability, A2058; format: cell-based, human; conditions: 0.2 μM antisense oligonucleotide/lipofectin, 4 hours
Method: as §1, §2

## 5′-CTCTAGCGTCTTAAAGCCGA-3′ (CTCTAGCGTCTTAAAGCCGA; chemistry not given here) [SEQ ID NO:1]
[1]
  expression of other cellular RNAs: significant decrease in R1 mRNA but not other RNAs; also recorded: No effects were observed
[2]
  levels in the brain: very low or below the limits of detection
  tissue concentrations, rank order: kidney>liver>spleen>lymph node (monkey)>lung (monkey)>heart
  tissue levels upon discontinuation of treatment: decreased over time
[3]; SCID mice, fat pad, SEQ ID NO:1 10 mg/kg every other day, Cisplatin 4 mg/kg, Taxol 10 mg/kg i.v. weekly for three weeks
  tumor weight / tumor growth: significant reduction of tumor weight
[3]; Taxol 10 mg/kg weekly as positive control
  delay in tumor growth compared with Taxol: superior to the inhibitory effects observed with Taxol
R1 mRNA
  R1 mRNA levels in tumors: marked reduction; also recorded: decreased R1 mRNA levels
[4]
  levels in the brain: very low or below the limits of detection; also recorded: undetectable
  tissue concentrations, rank order: kidney>liver>spleen>lymph node (monkey)>lung (monkey)>heart; also recorded: highest in the kidney followed by the liver, spleen and heart
[5]
  inhibition of tumor volume: strong inhibitory effects
SK-OV-3 (ovary)
  inhibition in colony forming ability: greater than 60%
Human tumors; SCID mice that are T and B cell deficient
  efficacy in tumor xenograft experiments: highly effective
Human tumors; doses of 1.0 to 10 mg/kg/day
  growth of human tumors in mouse models: significantly inhibited the growth
[6]
  elimination t1/2: 2.2 to 2.5 h
  plasma Cl: 0.762 to 1.945 mL/min/kg
  time to Css: consistently achieved at the first or second blood collection timepoint
A2058 (melanoma)
  inhibition in colony forming ability: greater than 60%
